Laboratory results from PMC7226106, “Population Pharmacokinetics/Pharmacodynamics of Dabrafenib Plus Trametinib in Patients with BRAF-Mutated Metastatic Melanoma” (Cancers, 2020).
“Also recorded” adds a separate entry of the source. Where two headings read alike, the source gives them in different places.

Legend:
[1] = Population pharmacokinetic model of trametinib (NONMEM) from plasma concentrations; assay type: in vivo, human (patients); details: for Vd/F: human, plasma, oral, read-out: V2/F, apparent central volume of distribution of TRA
Excerpt: (§1) Seventy-three outpatients treated with DAB were enrolled from July 2015 to June 2017 in this observational multicentric study including three hospitals of the Assistance Publique—Hôpitaux de Paris (Cochin, Henri Mondor, and Avicenne). To be eligible, patients needed to meet the following criteria: a minimal age of 18 years, metastatic BRAF^V600-mutated solid tumors, treatment with DAB or CombiDT with at least one available DAB concentration measurement.
(§2) DAB, dabrafenib-d9 (internal standard, IS), and TRA were purchased from LGC Standards (Molsheim, France). A custom synthesis was developed by Shanghai Medicilon (Shanghai, China) for OHD. The plasma concentrations were assayed using a validated high-performance liquid chromatography-tandem mass spectrometry (HPLC-MS/MS) (ATSQ Quantum Ultra®mass spectrometer, ThermoFisher, Les Ulis, France). Chromatographic separation was performed on Accucore® C18 (2.1 × 50 mm; 2.6 µm) analytical column (ThermoFisher Scientific, Les Ulis, France) associated with a guard column packed with the same bonded phase. Two hundred microliters (µL) aliquot of plasma (calibration standard, internal quality control or patient sample) was mixed with 20 µL of IS solution. Then 600 µL acetonitrile with 1% (v/v) formic acid was added. Samples were mixed and centrifuged, and the supernatant was evaporated and recovered with 200 µL of mobile phase: water/methanol (70:30%, v/v) with formic acid (0.1% v/v). Ten microliters of this mixture were injected into the HPLC-MS/MS system. The calibration standards ranged from 10 to 2000 ng/mL for DAB and OHD and from 5 to 50 ng/mL for TRA.
(§3) Blood samples were collected in heparinized tubes during the treatment course, and the exact sample time was recorded. Plasma was separated by centrifugation (3000 rpm, 5 min), and stored at −20 °C until analysis.
(§4) The non-linear mixed effects modeling program NONMEM v7.4.1 [34] with the Perl-Speaks NONMEM (PsN) Toolkit v4.8.0 [35] was used to build DAB/OHD and TRA models. Pirana v2.9.2 was used to assist in model development. […] Molar units were used for DAB/OHD analyses. Plasma samples with concentrations below the lower limit of quantification of the assay, non-reliable time information about blood sampling, or without dose information were excluded from the analysis.
(§5) A stepwise strategy was used to identify the base models that best fitted DAB/OHD and TRA pharmacokinetic data. Different structural models such as one or two compartments, with linear absorption with or without lag time, were compared. DAB and OHD were modeled simultaneously testing multi-compartment models for both compounds. We hypothesized that DAB was cleared by complete oxidation to OHD, since it is not eliminated as unchanged molecule in urine and accounts for less than 22% in feces. Moreover, the first-order absorption rate constant (ka) of DAB was fixed to 1.8 h^−1 according to a previously published value to allow an adequate estimate of all pharmacokinetic parameters. Since DAB and TRA are administered orally, the pharmacokinetic parameters represent apparent values. Exponential errors following a log-normal distribution were assumed for the description of IIV of all the pharmacokinetic parameters. Inter-occasion variability (IOV) was tested in both DAB/OHD and TRA models to assess differences in individual parameters across study occasions. Additive, proportional, and mixed error models were compared to depict the residual unexplained variability (RUV) for both drugs and metabolite. The correlation between DAB and OHD data was tested using the L2 item in NONMEM. […]

[2] = system: BRAF^V600-mutated MM patients; assay: Safety: adverse events and dose-limiting toxicities (DLT) under CombiDT; details: human, in vivo
Procedure: Patients initiated DAB at the recommended daily dose of 150 mg twice daily. In patients treated with CombiDT, TRA was started at 2 mg once daily. Reduced starting doses were allowed at physician discretion based on comorbidities and patients’ general condition. All AE were graded using the National Cancer Institute Common Toxicity Criteria v4.0. DAB treatment was continued until disease progression, unacceptable toxicity, or unfitness to receive it.

[3] = system: BRAF^V600-mutated metastatic melanoma; assay: Survival (PFS, OS) and Cox exposure-survival analysis under CombiDT; assay type: in vivo, human (patients); details: for Risk of Death, HR (CI95%) for AUCM3 / Risk of Progression, HR (CI95%) for AUCM3: n = 30
Procedure: (§6) Pharmacokinetic/pharmacodynamic analysis was conducted in BRAF^V600-mutated MM patients concomitantly treated with CombiDT. Regarding safety, the onset of DLT was considered as the clinical endpoint. A DLT was defined as any toxicity leading to dose reduction or temporary or permanent discontinuation of treatment. Regarding survival, the primary end point was progression free survival (PFS), the time from DAB and TRA treatment initiation to documented progression event (either clinical or radiological progression) or death from any cause. The secondary end-point was overall survival (OS), defined as the time from DAB and TRA treatment initiation to death from any cause. Radiographic evidence of progression was defined according to modified Response Evaluation Criteria in Solid Tumor (RECIST) v1.1 [41].
Multivariate Cox models according to a stepwise procedure were tested including all variables which were significant at 5% level in the univariate analyses.

[4] = Model-estimated systemic exposure (AUC) in BRAF^V600-mutated MM patients treated with CombiDT; details: for AUC: human, plasma, oral
Procedure: as §6
(§7) Systemic exposures to DAB, OHD, and TRA (AUCDAB, AUCOHD, and AUCTRA, respectively) were calculated with classic equations, composite DAB and OHD AUC (AUCDAB+OHD) as previously explained and AUCOHD/DAB as the ratio of AUCOHD over AUCDAB. Univariate Fisher and Wilcoxon models were performed to identify which parameters could contribute to the onset of DLT. The following variables were tested: sex, age at treatment initiation, BMI, Eastern Cooperative Oncology Group Performance Status (ECOG PS: grade 0-1 vs ≥2), lactate dehydrogenase (LDH) level (<1.5N vs. ≥1.5N), AUCDAB, AUDOHD, AUCDAB+OHD, and AUCTRA.
(§8) Multivariate Cox models according to a stepwise procedure were tested including all variables which were significant at 5% level in the univariate analyses. All the pharmacokinetic/pharmacodynamic analyses were performed using R program v3.6.1 with RStudio v1.1.383 (http://www.r-project.org).

[5] = Population pharmacokinetic model of dabrafenib/hydroxy-dabrafenib (NONMEM) from plasma concentrations; assay type: in vivo, human (patients)
Excerpt: as §1, §2, §3, §4, §5

[6] = human, in vivo
Procedure: as §6, §7, §8

mutant BRAF = system: mutant BRAF; set-up: method as in PMID 24958809; details: in vitro study; cited from earlier work
[7] = set-up: method as in earlier work; details: preclinical data; cited from earlier work
[8] = cited from earlier work
[9] = bootstrap median (n = 500 samples)
[10] = multivariate Cox model with ECOG PS ≥2

CC(=O)Nc1cccc(-n2c(=O)n(C3CC3)c(=O)c3c(Nc4ccc(I)cc4F)n(C)c(=O)c(C)c32)c1 [TRA, trametinib]
CL/F, apparent clearance of TRA [1, 9]: 5.82 L/h
IIV CL/F, interindividual variability (coefficient of variation) [1, 9]: 28.6%
IIV Q, interindividual variability (coefficient of variation) [1, 9]: 80.1%
RUV, residual unexplained variability (additive error) [1, 9]: 4.10 ng/mL
Tlag, lag time [1, 9]: 0.728 h
ka, first order absorption rate constant [1, 9]: 1.04 h⁻¹
IIV CL/F, interindividual variability (coefficient of variation) ([1]; final TRA model): 29.6%
IIV Q, interindividual variability (coefficient of variation) ([1]; final TRA model): 80.2%
RUV, residual unexplained variability (additive error) ([1]; final TRA model): 4.14 ng/mL
Tlag, lag time ([1]; final TRA model): 0.709 h
ka, first order absorption rate constant ([1]; final TRA model): 0.913 h⁻¹
CL/F, apparent clearance of TRA ([1]; final TRA model, n = 60): 5.83 L/h
Vd/F [1, 9]: 65.1 L
Vd/F ([1]; final TRA model): 61.9 L
median time to onset of drug-related DLT [2]: 104 days
patients in whom the drug dose was reduced [2]: 23%
patients in whom the drug was discontinued permanently [2]: 10%
patients who experienced a drug-related DLT [2]: 33%
Risk of Death, HR (CI95%) for AUCM3 ([3]; univariate Cox model): 1.37 (0.94–1.98)
Risk of Progression, HR (CI95%) for AUCM3 ([3]; univariate Cox model): 1.31 (0.93–1.83)
AUC ([4]; AUCTRA, median (range), patients with TRA-related DLT (n = 17), last AUC before onset of DLT): 268 ng·h/mL
AUC ([4]; AUCTRA, median (range), patients without TRA-related DLT (n = 35), average AUC over treatment course): 268 ng·h/mL
AUC ([4]; median AUCM3 (mean AUC during the first three months of treatment), 30 MM patients of the exposure-survival analysis): 292 ng·h/mL

CC(C)(CO)c1nc(-c2cccc(NS(=O)(=O)c3c(F)cccc3F)c2F)c(-c2ccnc(N)n2)s1 [OHD, hydroxy-dabrafenib]
difference in pharmacokinetics ([5]; DAB monotherapy vs. combiDT (ΔOFV = −2.9, p > 0.05)): did not differ
CLm/F, apparent clearance of OHD ([5]; base DAB/OHD model): 22.8 L/h
IIV CLm/F, interindividual variability (coefficient of variation) ([5]; base DAB/OHD model): 26.8%
IIV V3/F, interindividual variability (coefficient of variation) ([5]; base DAB/OHD model): 84.0%
RUV of OHD, residual unexplained variability (proportional) ([5]; base DAB/OHD model): 53.1%
CLm/F, apparent clearance of OHD [5, 9]: 22.9 L/h
IIV CLm/F, interindividual variability (coefficient of variation) [5, 9]: 21.8%
IIV V3/F, interindividual variability (coefficient of variation) [5, 9]: 82.0%
RUV of OHD, residual unexplained variability (proportional) [5, 9]: 52.7%
θage/(CLm/F), Age effect on CLm/F [5, 9]: −0.543
difference in pharmacokinetics ([5]; concomitant proton-pump inhibitor (PPI) intake (ΔOFV = −3.5, p > 0.05)): did not differ
CLm/F, apparent clearance of OHD ([5]; final DAB/OHD model): 23.2 L/h
IIV CLm/F, interindividual variability (coefficient of variation) ([5]; final DAB/OHD model): 24.0%
IIV V3/F, interindividual variability (coefficient of variation) ([5]; final DAB/OHD model): 47.5%
RUV of OHD, residual unexplained variability (proportional) ([5]; final DAB/OHD model): 53.1%
θage/(CLm/F), Age effect on CLm/F ([5]; final DAB/OHD model, median age 61.2 years): −0.589
base model variance of clearance explained by covariates (sex, age) ([5]; in vivo): 20%
decrease in CLm/F ([5]; same age variation (20 to 90 years)): 51%
Risk of Death, HR (CI95%) for AUCM3,OHD [3, 10]: 1.61 (1.07–2.45)
Risk of Death, HR (CI95%) for AUCM3,OHD/DAB ratio ≥ 1 [3, 10]: 10.61 (2.34–48.15)
Risk of Progression, HR (CI95%) for AUCM3,OHD ([3]; multivariate Cox model with cerebral metastases): 1.29 (0.99–1.68)
Risk of Progression, HR (CI95%) for AUCM3,OHD ([3]; multivariate Cox model with number of metastasis site ≥3): 1.27 (0.97–1.68)
Risk of Death, HR (CI95%) for AUCM3,OHD/AUCM3,DAB ratio ≥ 1 vs. < 1 ([3]; univariate Cox model): 4.11 (1.18–14.29)
Risk of Progression, HR (CI95%) for AUCM3,OHD/AUCM3,DAB ratio ≥ 1 vs. < 1 ([3]; univariate Cox model): 1.66 (0.62–4.46)
Risk of Death, HR (CI95%) for AUCM3 ([3]; univariate Cox model): 1.64 (1.09–2.48)
Risk of Progression, HR (CI95%) for AUCM3 ([3]; univariate Cox model): 1.37 (1.02–1.83)
median AUCOHD/AUCDAB ratio [6]: 0.80 (0.50–1.32)
potency as an inhibitor of mutant BRAF compared to DAB (mutant BRAF): two-fold higher pharmacological potency; also recorded: twofold higher potency
passage of the intact blood brain barrier [7]: lack of OHD diffusion into the brain
mean OHD-to-DAB exposure ratio in plasma [8]: 0.8
median AUCM3 (mean AUC during the first three months of treatment) ([4]; 30 MM patients of the exposure-survival analysis): 6082 ng·h/mL
AUCM3,OHD/AUCM3,DAB ratio ([4]; patients experiencing cerebral progression): 0.9 (0.5–1.3)
AUC, median (range) ([4]; patients with DAB-related DLT (n = 12), last AUC before onset of DLT): 7509.5 (4918–10300) ng∙h/mL
AUCM3,OHD/AUCM3,DAB ratio ([4]; patients with extra-cerebral progression): 0.8 (0.6–0.8)
AUC, median (range) ([4]; patients without DAB-related DLT (n = 40), average AUC over treatment course): 5812 (2459–10300) ng∙h/mL

CC(C)c1nc(-c2cccc(NS(=O)(=O)c3c(F)cccc3F)c2F)c(-c2ccnc(N)n2)s1 [desmethyl-dabrafenib]
passage of the intact blood brain barrier [7]: may cross intact blood brain barrier
